Results on 4 sequences are retold here after paper PMC6409716, “Centipede KCNQ Inhibitor SsTx Also Targets KV1.3” (Toxins, 2019).

Like-named read-outs stand apart in the source and are kept apart here. Bridges are numbered along the chain shown (N, C = ends). Where no end group is shown, it is not given here.

Data set [1] addresses T1, KV1.3 (Homo sapiens, UniProt P22001).
T1 construct: expressed in transfected cells; host or cells: HEK293T and CHO cells
Nature of the data set: Whole-cell patch-clamp, KV1.3. It counts as cell-based. As to conditions: whole-cell recording, HEK293T and CHO cells transfected, 1000-ms depolarizing pulse of 10 mV from −80 mV, pH 7.3, room temperature, Hill fit. The procedure: (§1) HEK293T and CHO cells were cultured as described in our previous work. The plasmid DNA (5μL, 1 μg/μL) of KV1.3 and KV7.4 channel was mixed with lipofectamine at a ratio of 1:1 in 200 μL Opti-MEM for 15–20 min, and the mixture was transferred to the cells plated in 20 mm cell culture dish for 12 h. After 24 h transfections, electrophysiological experiments were carried out at room temperature.
(§2) The cells expressing KV1.3 and KV7.4 were digested and plated on glass coverslips before current recording. The HEKA EPC10 amplifier (HEKA Elektronik, Ludwigshafen, Germany) was used to record currents in whole cells under the control of PATCHMASTER software (HEKA Elektronik, Ludwigshafen, Germany). A thin-wall borosilicate glass (A-M Systems) was used to pull patch pipettes and then the pipettes were fire-polished to 3–4 megohm. For whole-cell recordings, the capacity current was minimized by amplifier circuitry, and the series resistance was compensated by 30% to 65%. For KV1.3 and KV7.4 channel, intracellular solution contained 140 mM KCl, 10 mM EGTA, 2 mM MgCl2, 1 mM CaCl2, 10 mM HEPES (pH 7.3, adjusted with KOH), and extracellular solution contained 150 mM NaCl, 0.5 mM CaCl2, 5 mM KCl, 1.2 mM MgCl2, 10 mM HEPES (pH 7.3, adjusted with NaOH), and the current traces were tested by a 1000-ms depolarizing pulse of 10 mV from a holding voltage of −80 mV. The Hill logistic equation shown below was used to fit the Dose–response curves:y = 1 − (1 − fmax)/[1 + ([Tx]/IC50) n](1) where n is an empirical Hill coefficient, and fmax is the fraction of current resistant to inhibition at high toxin (Tx) concentration.
Background: In patch-clamp work, channel activity is measured electrically.

The conditions of data set [2]: ref [8]; cited from earlier work. An excerpt: With over 3000 species, centipedes, arthropods of the class Chilopoda are widely distributed in both tropical and subtropical regions. Their first pair of legs have been modified into strong mandibles and venomous fangs called forcipules that play a critical role in defense and predation. Centipede stings occur frequently in areas, such as Hawaii, Brazil, Australia, Taiwan, and Japan, evoking an issue of social health care. Centipede toxins are composite mixtures, which are responsible for both local and systemic reactions. Recently, we have identified and characterized several pep ...

The target of data set [3] is T2, KV7.4 (Homo sapiens, UniProt P56696).
T2 construct: expressed in transfected cells; host or cells: HEK293T and CHO cells
Description: Whole-cell patch-clamp, KV7.4. As to conditions: whole-cell recording, HEK293T and CHO cells transfected; 1000-ms depolarizing pulse of 10 mV from −80 mV; pH 7.3; room temperature; Hill fit; n = 5 cells. The class given is cell-based. The procedure: as §1
as §2, with “The Hill logistic equation shown below was used to fit the Dose–response curves:y = 1 − (1 − fmax)/[1 + ([Tx]/IC50) n](1) where n is an empirical Hill coefficient, and fmax is the fraction of current resistant to inhibition at high toxin (Tx) concentration.” left out

The mark [4] stands for this setting: n = 5 cells, read-out: IC50 on KV1.3 (mutants).

T1 sequence (P22001 whole entry): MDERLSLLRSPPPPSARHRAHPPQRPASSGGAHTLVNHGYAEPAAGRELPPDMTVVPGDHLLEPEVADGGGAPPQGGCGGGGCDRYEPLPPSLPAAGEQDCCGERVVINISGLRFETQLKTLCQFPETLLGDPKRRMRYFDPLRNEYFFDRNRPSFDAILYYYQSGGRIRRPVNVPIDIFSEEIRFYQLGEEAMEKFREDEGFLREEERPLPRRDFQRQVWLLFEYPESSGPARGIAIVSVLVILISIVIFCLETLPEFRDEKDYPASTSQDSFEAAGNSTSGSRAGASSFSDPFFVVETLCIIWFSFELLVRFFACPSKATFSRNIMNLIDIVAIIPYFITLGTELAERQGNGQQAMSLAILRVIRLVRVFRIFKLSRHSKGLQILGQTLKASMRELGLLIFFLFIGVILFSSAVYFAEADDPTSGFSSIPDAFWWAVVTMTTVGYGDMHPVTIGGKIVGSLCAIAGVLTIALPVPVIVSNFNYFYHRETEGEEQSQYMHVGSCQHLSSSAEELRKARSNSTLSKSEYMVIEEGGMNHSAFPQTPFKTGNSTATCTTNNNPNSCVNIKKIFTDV
T2 sequence (P56696 whole entry): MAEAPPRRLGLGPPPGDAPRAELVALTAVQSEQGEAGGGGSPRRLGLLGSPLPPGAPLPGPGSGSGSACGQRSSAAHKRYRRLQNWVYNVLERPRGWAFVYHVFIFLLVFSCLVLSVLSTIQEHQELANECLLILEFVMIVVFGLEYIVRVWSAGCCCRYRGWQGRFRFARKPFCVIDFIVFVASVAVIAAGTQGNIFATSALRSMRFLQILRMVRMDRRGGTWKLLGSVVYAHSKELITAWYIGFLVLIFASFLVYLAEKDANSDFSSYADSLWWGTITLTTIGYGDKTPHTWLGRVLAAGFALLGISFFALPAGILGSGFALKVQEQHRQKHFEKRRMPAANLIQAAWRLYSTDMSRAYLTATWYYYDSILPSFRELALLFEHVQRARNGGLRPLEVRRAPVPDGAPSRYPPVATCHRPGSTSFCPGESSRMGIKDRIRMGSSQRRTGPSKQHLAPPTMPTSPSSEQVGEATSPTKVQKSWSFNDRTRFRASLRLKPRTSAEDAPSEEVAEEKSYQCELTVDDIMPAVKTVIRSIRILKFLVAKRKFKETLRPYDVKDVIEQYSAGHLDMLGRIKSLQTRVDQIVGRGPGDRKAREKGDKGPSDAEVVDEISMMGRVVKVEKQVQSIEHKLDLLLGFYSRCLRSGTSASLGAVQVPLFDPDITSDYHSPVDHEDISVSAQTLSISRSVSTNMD

As for “EVIKKDTPYKKAKFPYKSECLKACATSFTGGDESRIQEGKPGFFKCTCYFTTG (disulfide 20-46, 24-48) [SsTx_R12A]”, the IC50 in data set [1] (setting [4]) came out at 22.23 ± 0.22 µM.

As to “EVIKKDTPYKKRAFPYKSECLKACATSFTGGDESRIQEGKPGFFKCTCYFTTG (disulfide 20-46, 24-48) [SsTx_K13A]”, the IC50 in data set [1] (setting [4]) is 526.1 ± 0.48 µM.

On to “EVIKKDTPYKKRKFPYKSECLKACATSFTGGDESRIQEGKPGFFKCTCYFTTG (disulfide 20-46, 24-48) [SsTx, Ssm Spooky Toxin]”, for which the lethal toxicity result in data set [2] is “potent lethal toxicity by causing severe vessels and respiratory disorders or seizures”. In addition, the IC50 in data set [1] (n = 10 cells, read-out: IC50 on KV1.3) is 5.26 µM; in data set [3] it was 2.8 ± 0.23 µM.

As for “EVIKKDTPYKARKFPYKSECLKACATSFTGGDESRIQEGKPGFFKCTCYFTTG (disulfide 20-46, 24-48) [SsTx_K11A]”, in data set [1] (setting [4]), the IC50 was 507 ± 0.61 µM.

For orientation: IC50 means the concentration that inhibits the measured activity by half.
